# Key:
# [1] = system: E. coli expressing the Class A Extended Spectrum Beta-Lactamase (ESBL) CTX-M-15; assay: Broth microdilution MIC assay with ceftazidime, E. coli CTX-M-15; assay type: cell-based; conditions: for MIC (μg/mL) of Exemplary Compounds in presence of fixed β-lactams: E. coli ESBL4 CTX-M-15: Fixed CAZ (ceftazidime) 4 μg/mL
# From the text: (§1) To determine the ability of test compounds to potentiate the inhibition of the growth of bacterial strains that produce beta-lactamase enzymes in the presence of a β-lactam antibiotic, classic cell based broth microdilution MIC assays were employed. Six bacteria strains producing beta-lactamase enzymes were used: E. coli expressing the Class A Extended Spectrum Beta-Lactamase (ESBL) CTX-M-15, E. cloacae expressing the Class C P99, K. pneumoniae expressing the Class A carbapenemase KPC-2, P. aeruginosa expressing the Class B carbapenemase VIM-2, K. pneumoniae expressing the class A carbapenemase KPC-2 and the class B carbapenemase VIM-4, and K. pneumoniae producing the Class D carbapenemase OXA-48. The assay was conducted in Cation Adjusted Mueller Hinton Broth (CAMHB, BD #212322, BD Diagnostic Systems, Sparks, Md.). Bacteria strains were grown for 3-5 hours in CAMBH broth. Test compounds (Examples 1-94) were added to a microtiter plate in 2-fold serial dilutions in CAMHB in a final concentration range of 16 μg/mL to 0.125 μg/ml. An overlay of CAMHB containing a Beta-lactam was added to the compounds at a final static concentration of 4 μg/ml. […] In addition to the titration of test compounds the MICs of a panel of control beta-lactams is also tested to ensure the strains are behaving consistently from test to test. Once the test compound and antibiotics are added the plates can be inoculated according to CLSI broth microdilution method. After inoculation the plates are incubated for 16-20 hours at 37° C. then the Minimal Inhibitory Concentration (MIC) of the test compound is determined visually.
# (§2) Using the methodology described above, examples of the current invention were evaluated for their ability to inhibit the growth of β-lactamase-producing bacteria in the presence of a β-lactam antibiotic.
# OXA-48 = OXA-48 (UniProt Q6XEC0); assay: β-lactamase enzyme inhibition assay, Class D oxacillinase; assay type: biochemical; conditions: read-out: OXA-48
# VIM-2 = target: T1, VIM-2 (Escherichia coli, UniProt Q5U7L7); assay: β-lactamase enzyme inhibition assay, VIM-2 (nitrocefin substrate); assay type: biochemical; conditions: Class B; nitrocefin substrate, 486 nm; read-out: VIM-2
# T1 construct: made in house; host or cells: E. coli BL21(DE3)
# Protocol: For Vim-2 metallo β-lactamase, the procedure was identical with the following exceptions, first the protein was not pH adjusted to pH 5 with 50 mM sodium acetate, second, the chromatography step was changed to a 5 ml Q sepharose anion exchange column pre-equilibrated with 50 mM Hepes pH 7.5, and elution of the protein was achieved by a linear gradient of NaCl (0-600 mM). Finally, the VIM-2 purification required a second run (3rd step) on the Q sepharose anion exchange column to achieve acceptable purity (>90%).
# (§3) An equal volume of diluted enzyme stock was added, and the plates were incubated at 37° C. for 15 min. Nitrocefin was used as substrate for p99 AmpC, VIM-2 and OXA-1 and dispensed into each well at a final concentration of 100 μM. Absorbance at 486 nm was immediately monitored for 10 min using a Biotek Powerwave XS2 microplate spectrophotometer using the GEN5 software package (Biotek Instruments, Winooski Vt.). In an analogous fashion, imipenem was used as substrate for Kpc-2 and Cefotaxime was used for SHV-5, while changes in absorbance upon hydrolysis of the β-lactam ring were monitored at 300 nm and 260 nm respectively in UV-transparent 96-well microtiter assay plates. Maximum rates of hydrolysis were compared to those in control wells (without inhibitors), and percentages of enzyme inhibition were calculated for each concentration of inhibitor. The concentration of inhibitor needed to reduce the initial rate of hydrolysis of substrate by 50% (IC50) was calculated as the residual activity of β-lactamase at 486 nm using GraFit version 7 kinetics software package (Erithacus Software, Surrey, UK).
# (§4) Using the methodology described above, examples of the current invention were evaluated for their ability to inhibit β-lactamase enzymes from all four Ambler classifications (A through D). […] NT=Not tested.
# KPC-2 = target: T2, KPC-2 (Klebsiella pneumoniae, UniProt Q9F663); assay: β-lactamase enzyme inhibition assay, KPC-2 (imipenem substrate); assay type: biochemical; conditions: Class A; imipenem substrate, 300 nm; read-out: KPC-2
# T2 construct: made in house; host or cells: E. coli BL21(DE3)
# T2 sequence (Q9F663 25-293, looked up): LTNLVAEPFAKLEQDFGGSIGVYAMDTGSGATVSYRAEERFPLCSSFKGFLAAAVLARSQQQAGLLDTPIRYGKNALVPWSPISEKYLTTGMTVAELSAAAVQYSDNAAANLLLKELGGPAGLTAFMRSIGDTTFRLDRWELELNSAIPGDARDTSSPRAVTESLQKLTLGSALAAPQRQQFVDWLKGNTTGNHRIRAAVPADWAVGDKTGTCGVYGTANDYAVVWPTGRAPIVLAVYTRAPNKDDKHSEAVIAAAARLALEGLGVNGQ
# Protocol: (§5) For SHV-5, Kpc-2, p99AmpC and OXA-1 β-lactamases, E. coli BL21(DE3) bacterial cells carrying expression plasmids (expressed as native untagged proteins) for the individual β-lactamases were grown in 1 L of Superbroth (Teknova Inc. Hollister, Calif.) supplemented with 100 μg/ml kanamycin selection and 1×5052 (0.5% glycerol, 0.05% glucose and 0.2% α-lactose) at 35° C. for 18-20 hours. Cells were harvested by centrifugation (4,000×g, 4° C., 20 min), resuspended in 50 ml of 10 mM HEPES pH 7.5 ( 1/20 of the initial volume). The cells were lysed by sonication (5 pulses of 45 seconds) at 45 W on ice. The lysates were clarified by centrifugation at 10,000×g for 40 minutes at 4° C. Samples were diluted 5-fold in 50 mM sodium acetate pH 5.0, stored overnight at 4° C., after which they were centrifuged at 10,000×g for 30 minutes to clarify, and filtered through 0.45 μm filters. The samples were loaded onto a 5 ml Capto S sepharose cation exchange column (GE Healthcare) pre-equilibrated with 50 mM sodium acetate pH 5.0. The column was washed with 5 column volumes of 50 mM sodium acetate pH 5.0 to wash out unbound protein and a linear gradient of NaCl (0 to 500 mM) was used to elute the protein (over 16 CV) from the column. Fractions were assayed for β-lactamase activity using Centa (Calbiochem, Gibbstown, N.J.) or Nitrocefin (EMD Millipore chemicals, Darmstadt, Germany) as a reporter β-lactamase substrate for activity in the isolated fractions. Active fractions were pooled, concentrated and further purified by gel filtration chromatography on a Superdex 75 prep grade gel filtration column (GE Healthcare, Piscataway, N.J.) pre-equilibrated in 50 mM Hepes pH 7.5, 150 mM NaCl. Active fractions were pooled concentrated, quantitated by BCA protein determination (Thermo Scientific, Rockford, Ill.), dialyzed into PBS and frozen at −80° C. in 20% glycerol until use.
# as §3, §4
# [2] = system: P. aeruginosa expressing the Class B carbapenemase VIM-2; assay: Broth microdilution MIC assay with meropenem, P. aeruginosa VIM-2; assay type: cell-based; conditions: Fixed Mero (meropenem) 4 μg/mL; P. aerug. 2775 VIM-2
# From the text: as §1, §2
# [3] = system: K. pneumoniae producing the Class D carbapenemase OXA-48; assay: Broth microdilution MIC assay with meropenem, K. pneumoniae OXA-48; assay type: cell-based; conditions: Fixed Mero (meropenem) 4 μg/mL; K. p. 11978 OXA-48
# From the text: as §1, §2
# [4] = system: K. pneumoniae expressing the class A carbapenemase KPC-2 and the class B carbapenemase VIM-4; assay: Broth microdilution MIC assay with meropenem, K. pneumoniae KPC-2 and VIM-4; assay type: cell-based; conditions: Fixed Mero (meropenem) 4 μg/mL; K. p. A-1797 KPC-2 VIM-4
# From the text: as §1, §2
# [5] = system: E. cloacae expressing the Class C P99; assay: Broth microdilution MIC assay with ceftazidime, E. cloacae P99; assay type: cell-based; conditions: for MIC (μg/mL) of Exemplary Compounds in presence of fixed β-lactams: E. cl. 144200 p99 AmpC: Fixed CAZ (ceftazidime) 4 μg/mL
# From the text: as §1, §2
# [6] = system: K. pneumoniae expressing the Class A carbapenemase KPC-2; assay: Broth microdilution MIC assay with meropenem, K. pneumoniae KPC-2; assay type: cell-based; conditions: Fixed Mero (meropenem) 4 μg/mL; K. p. 156319 KPC-3
# From the text: as §1, §2
# SHV-5 = target: T3, SHV-5 (Klebsiella pneumoniae, UniProt P0A3M1); assay: β-lactamase enzyme inhibition assay, SHV-5 (cefotaxime substrate); assay type: biochemical
# T3 construct: made in house; host or cells: E. coli BL21(DE3)
# T3 sequence (P0A3M1 22-286): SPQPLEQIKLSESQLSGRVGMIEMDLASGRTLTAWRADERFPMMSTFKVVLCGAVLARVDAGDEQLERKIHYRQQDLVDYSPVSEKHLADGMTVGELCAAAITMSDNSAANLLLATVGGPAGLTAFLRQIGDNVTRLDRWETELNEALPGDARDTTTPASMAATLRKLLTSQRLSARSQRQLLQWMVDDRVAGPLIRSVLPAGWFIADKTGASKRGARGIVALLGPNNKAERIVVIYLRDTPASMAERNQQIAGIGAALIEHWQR
# Protocol: as §5, §3, §4
# AmpC = target: T4, AmpC (Enterobacter cloacae, UniProt P05364); assay: β-lactamase enzyme inhibition assay, p99 AmpC (nitrocefin substrate); assay type: biochemical
# T4 construct: made in house; host or cells: E. coli BL21(DE3)
# T4 sequence (P05364 21-381): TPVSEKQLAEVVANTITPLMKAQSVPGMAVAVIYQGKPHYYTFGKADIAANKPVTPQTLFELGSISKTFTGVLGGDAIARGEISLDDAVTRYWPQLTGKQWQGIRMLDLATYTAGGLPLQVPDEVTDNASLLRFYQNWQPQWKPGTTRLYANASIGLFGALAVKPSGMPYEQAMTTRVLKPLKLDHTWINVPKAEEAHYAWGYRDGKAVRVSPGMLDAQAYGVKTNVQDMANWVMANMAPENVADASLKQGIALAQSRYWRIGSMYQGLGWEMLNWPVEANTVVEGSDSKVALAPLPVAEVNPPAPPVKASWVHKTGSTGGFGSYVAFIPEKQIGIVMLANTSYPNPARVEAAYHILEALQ
# Protocol: as §5, §3, §4
SMILES,MIC (μg/mL) of Exemplary Compounds in presence of fixed β-lactams: E. coli ESBL4 CTX-M-15 [1],IC50 (OXA-48) [µM],IC50 (VIM-2) [µM],IC50 (KPC-2) [µM],MIC (μg/mL) of Exemplary Compounds in presence of fixed β-lactams: P. aerug. 2775 VIM-2 [2],MIC (μg/mL) of Exemplary Compounds in presence of fixed β-lactams: K. p. 11978 OXA-48 [3],MIC (μg/mL) of Exemplary Compounds in presence of fixed β-lactams: K. p. A-1797 KPC-2 VIM-4 [4],MIC (μg/mL) of Exemplary Compounds in presence of fixed β-lactams: E. cl. 144200 p99 AmpC [5],MIC (μg/mL) of Exemplary Compounds in presence of fixed β-lactams: K. p. 156319 KPC-3 [6],IC50 (SHV-5) [µM],IC50 (AmpC) [µM],"MIC ([1]; Escherichia coli, read-out: MIC alone) [mg/L]","MIC ([5]; Enterobacter cloacae, read-out: MIC alone) [mg/L]"
"O=C(Cn1cncn1)N[C@H]1Cc2cccc(C(=O)O)c2OB1O [Example 18, (R)-3-(2-(1H-1,2,4-triazol-1-yl)acetamido)-2-hydroxy-3,4-dihydro-2H-benzo[e][1,2]oxaborinine-8-carboxylic acid]",C (C represents an MIC of <1 μg/mL),1 to 10,0.1 to 1,< 0.1,B (B represents an MIC between 1 and 16 μg/mL inclusive),B (B represents an MIC between 1 and 16 μg/mL inclusive),B (B represents an MIC between 1 and 16 μg/mL inclusive),C (C represents an MIC of <1 μg/mL),C (C represents an MIC of <1 μg/mL),–,–,–,–
"NCc1nnnn1CC(=O)N[C@H]1Cc2cccc(C(=O)O)c2OB1O [Example 17, (R)-3-(2-(5-(aminomethyl)-1H-tetrazol-1-yl)acetamido)-2-hydroxy-3,4-dihydro-2H-benzo[e][1,2]oxaborinine-8-carboxylic acid]",C (C represents an MIC of <1 μg/mL),0.1 to 1,< 0.1,< 0.1,C (C represents an MIC of <1 μg/mL),B (B represents an MIC between 1 and 16 μg/mL inclusive),B (B represents an MIC between 1 and 16 μg/mL inclusive),C (C represents an MIC of <1 μg/mL),B (B represents an MIC between 1 and 16 μg/mL inclusive),–,–,–,–
"O=C(Cn1cc(-c2ccccn2)nn1)N[C@H]1Cc2cccc(C(=O)O)c2OB1O [Example 10, (R)-2-hydroxy-3-(2-(4-(pyridin-2-yl)-1H-1,2,3-triazol-1-yl)acetamido)-3,4-dihydro-2H-benzo[e][1,2]oxaborinine-8-carboxylic acid]",C (C represents an MIC of <1 μg/mL),< 0.1,1 to 10,< 0.1,–,B (B represents an MIC between 1 and 16 μg/mL inclusive),A (A represents an MIC>16 μg/mL),C (C represents an MIC of <1 μg/mL),B (B represents an MIC between 1 and 16 μg/mL inclusive),< 0.1,< 0.1,–,–
"CC(C)(O/N=C(\C(=O)N[C@@H]1C(=O)N2C(C(=O)[O-])=C(C[n+]3ccccc3)CS[C@H]12)c1csc(N)n1)C(=O)O [Ceftazidime, ceftazidime, reference compound]",–,–,–,–,–,–,–,–,–,–,–,> 128,128
"Cc1nnn(CC(=O)N[C@H]2Cc3cccc(C(=O)O)c3OB2O)c1CN [Example 120, (R)-3-(2-(5-(aminomethyl)-4-methyl-1H-1,2,3-triazol-1-yl)acetamido)-2-hydroxy-3,4-dihydro-2H-benzo[e][1,2]oxaborinine-8-carboxylic acid]",C (C represents an MIC of <1 μg/mL),< 0.1,< 0.1,< 0.1,–,B (B represents an MIC between 1 and 16 μg/mL inclusive),B (B represents an MIC between 1 and 16 μg/mL inclusive),C (C represents an MIC of <1 μg/mL),B (B represents an MIC between 1 and 16 μg/mL inclusive),0.1 to 1,< 0.1,–,–

# — US11046716B2, “Beta-lactamase inhibitors” (priority 2015, dated 2021)
